Reference: patent US20170233346A1, “CRYSTALLINE ANTI-TRICHOPHYTON AGENTS AND PREPARATION PROCESS THEREOF” (MEIJI SEIKA PHARMA CO., LTD., priority 2014, published 2017)

Assay: Crystal form stability test (preservation, then powder X-ray diffraction and content)
Format: physicochemical
Protocol: Using high-speed imaging plate X-ray diffraction system (R-AXIS VII) manufactured by Rigaku Corporation, X-ray diffraction data of the crystals of the compound of the formula (1) were measured at −180° C. with a CuK α radiation (50 kV, 90 mA, λ=1.5418 Å). A sample was filled in a glass capillary having an inner diameter of 0.7 mm. The diffraction images were collected under the conditions a camera length of 300 mm, an oscillation angle of 40°, and an exposure time of 45 minutes. A contour integration treatment of the diffraction image was carried out by an R-AXIS display software available from Rigaku Corporation (integration range: 45 to 135°). The maximum value of the obtained integrated intensity was made 100, relative intensities of the respective integral intensities were calculated, and plotting them based on the diffraction angle 20 to prepare a diffraction pattern. With regard to the crystals of the compounds of the formula (1), these were preserved under the following mentioned temperature and humidity conditions, and then powder X-ray diffractions were measured. […] Term: 12 months Preservation condition: 25±2° C./[…] Packaging form: Polyethylene double bag/fiber drum Term: 6 months Preservation condition: 40±2° C./75±5% RH* *: RH: relative humidity Packaging form: Polyethylene double bag/fiber drum

[1] = Test 1, 25° C./60% RH, at starting
[2] = Test 1, 25° C./60% RH, preservation period 3 months
[3] = Test 1, 25° C./60% RH, preservation period 6 months
[4] = Test 1, 25° C./60% RH, preservation period 9 months
[5] = Test 1, 25° C./60% RH, preservation period 12 months
[6] = Test 2, 40° C./75% RH, preservation period 1 month
[7] = Test 2, 40° C./75% RH, preservation period 3 months
[8] = Test 2, 40° C./75% RH, preservation period 6 months

With Cc1ccc(-n2nc(C)cc2C)c(O)c1 [formula (1), 2-(3,5-dimethyl-1H-pyrazol-1-yl)-5-methylphenol] the “Content (%)” value [1] was “(99.7%)*”, the “Crystal form (powder X-ray diffraction)” value [1] was “Form A” and the “Content (%)” value [2] was “(99.9%)*”. The “Crystal form (powder X-ray diffraction)” value [2] was “Form A”, the “Content (%)” value [3] was “(98.9%)*” and the “Crystal form (powder X-ray diffraction)” value [3] was “Form A”. The “Content (%)” value [4] was “(99.9%)*”, the “Crystal form (powder X-ray diffraction)” value [4] was “Form A” and the “Content (%)” value [5] was “(99.0%)*”. The “Crystal form (powder X-ray diffraction)” value [5] was “Form A”, the “Change in crystal form after preservation” value (Test 1 and Test 2, either of the measurement times) was “no change in crystal form was observed” and the “Content (%)” value [6] was “(100.3%)*”. For the same compound, the “Crystal form (powder X-ray diffraction)” value [6] was “Form A”, the “Content (%)” value [7] was “(100.6%)*” and the “Crystal form (powder X-ray diffraction)” value [7] was “Form A”. For the same compound, the “Content (%)” value [8] was “(100.4%)*”, the “Crystal form (powder X-ray diffraction)” value [8] was “Form A” and the “Period over which Form A crystals were extremely stable and high purity” value (even under the accelerated conditions) was at least 6 months.
